Results as given in patent US9491941B2, “(Hetero) arylacrylamides for the control of ectoparasites” (Novartis Tiergesundheit AG, priority 2012, dated 2016).

system: Lepeophtheirus Salmonis at Copeodid Stage (sea lice copepodids); test: Activity in vitro against Lepeophtheirus salmonis at copepodid stage; settings: copepodids 1 hour contact in sea water, then 48 h untreated sea water; no movement over 80 seconds; serial dilution (MED)
Experimental: 3—Activity In Vitro Against Lepeophtheirus Salmonis at Copeodid Stage
Sea lice copepodids were used to seed a 96-well plate containing the test substances to be evaluated for antiparasitic activity. Each compound was tested by serial dilution in order to determine its minimal effective dose (MED). Copepodids were left in contact with the test compound diluted in sea water for 1 hour. They were then incubated in untreated sea water for 48 h. Efficacy against sea lice was then confirmed if no copepodid moved over a period of 80 seconds.

SMILES	efficacy (EC80)
O=C(/C=C/c1ccc(C(=O)NC2CC(F)C2)c2ccccc12)NC(c1cccc(C(F)(F)F)c1)C(F)(F)F (stereo not drawn) [Example 1.36]	50 ppb
O=C(/C=C/c1ccc(C(=O)NC2CSC2)c2ccccc12)NC(c1cccc(C(F)(F)F)c1)C(F)(F)F (stereo not drawn) [Example 1.10]	50 ppb
O=C(/C=C/c1ccc(C(=O)NC2CC2)c2ccccc12)NC(c1ccc(Cl)c(Cl)c1)C(F)(F)F (stereo not drawn) [Example 1.63]	50 ppb
Cc1cc(/C=C/C(=O)NC(c2cccc(C(F)(F)F)c2)C(F)(F)F)sc1C(=O)NC1CC1 (stereo not drawn) [Example 2.4]	50 ppb
O=C(/C=C/c1ccc(C(=O)NC2CC2)c2ccccc12)NC(c1cccc(OC(F)(F)F)c1)C(F)(F)F (stereo not drawn) [Example 1.61]	0.5 ppb
O=C(/C=C/c1ccc(C(=O)NC2CC2)c2ccccc12)NC(c1ccc(Cl)c(C(F)(F)F)c1)C(F)(F)F (stereo not drawn) [Example 1.66]	50 ppb
N#CC1(NC(=O)c2ccc(/C=C/C(=O)NC(c3cccc(C(F)(F)F)c3)C(F)(F)F)c3ccccc23)CC1 (stereo not drawn) [Example 1.26]	0.5 ppb
O=C(/C=C/c1ccc(C(=O)NC2CON(CC(F)(F)F)C2=O)c2ccccc12)NC(c1cccc(C(F)(F)F)c1)C(F)(F)F (stereo not drawn) [Example 1.46]	50 ppb
O=C(/C=C/c1ccc(C(=O)NC2CC2)c2ccccc12)NC(c1cccc(C(F)(F)F)c1)C(F)(F)F (stereo not drawn) [Example 4.1]	50 ppb
O=C(/C=C/c1ccc(C(=O)NC2CC2)c2ccccc12)NC(c1cccc(Br)c1)C(F)(F)F (stereo not drawn) [Example 1.56]	50 ppb
O=C(/C=C/c1ccc(C(=O)NCC2CSC2)c2ccccc12)NC(c1cccc(C(F)(F)F)c1)C(F)(F)F (stereo not drawn) [Example 1.43]	5 ppb
O=C(/C=C/c1ccc(C(=O)NC2CC2)c2cccnc12)NC(c1cccc(C(F)(F)F)c1)C(F)(F)F (stereo not drawn) [Example 3.2]	50 ppb
O=C(/C=C/c1ccc(C(=O)NCc2ccco2)c2ccccc12)NC(c1cccc(C(F)(F)F)c1)C(F)(F)F (stereo not drawn) [Example 1.3]	50 ppb
CC(C)NC(=O)c1ccc(/C=C/C(=O)NC(c2cccc(C(F)(F)F)c2)C(F)(F)F)c2ccccc12 (stereo not drawn) [Example 1.27]	50 ppb
O=C(/C=C/c1ccc(C(=O)NCC2CC2)c2ccccc12)NC(c1cccc(C(F)(F)F)c1)C(F)(F)F (stereo not drawn) [Example 1.1, N-(cyclopropylmethyl)-4-[(1E)-2-({2,2,2-trifluoro-1-[3-(trifluoromethyl)phenyl]ethyl}carbamoyl)eth-1-en-1-yl]naphthalene-1-carboxamide]	50 ppb
O=C(/C=C/c1ccc(C(=O)NC2CC2)c2ccccc12)NC(c1cccc(F)c1)C(F)(F)F (stereo not drawn) [Example 1.65]	5 ppb
O=C(/C=C/c1ccc(C(=O)NC2CC2)c2ccccc12)NC(c1cc(Cl)c(Cl)c(Cl)c1)C(F)(F)F (stereo not drawn) [Example 1.64]	5 ppb
CC1(NC(=O)c2ccc(/C=C/C(=O)NC(c3cccc(C(F)(F)F)c3)C(F)(F)F)c3ccccc23)CCC1 (stereo not drawn) [Example 1.41]	5 ppb
O=C(C=Cc1ccc(C(=O)NC2CC2F)c2ccccc12)NC(c1cccc(C(F)(F)F)c1)C(F)(F)F (stereo not drawn) [Example 1.40]	50 ppb
CCNC(=O)c1ccc(/C=C/C(=O)NC(c2cccc(C(F)(F)F)c2)C(F)(F)F)c2ccccc12 (stereo not drawn) [Example 1.13]	50 ppb
O=C(/C=C/c1ccc(C(=O)NC2CC(F)(F)C2)c2ccccc12)NC(c1cccc(C(F)(F)F)c1)C(F)(F)F (stereo not drawn) [Example 1.35]	50 ppb
N#CC1(NC(=O)c2ccc(/C=C/C(=O)NC(c3cccc(C(F)(F)F)c3)C(F)(F)F)c3ccccc23)CCC1 (stereo not drawn) [Example 1.44]	50 ppb
O=C(/C=C/c1ccc(C(=O)NC2CC2)c2ccccc12)NC(c1cccc2ccccc12)C(F)(F)F (stereo not drawn) [Example 1.82]	50 ppb
Cc1cccc(C(NC(=O)/C=C/c2ccc(C(=O)NC3CC3)c3ccccc23)C(F)(F)F)c1 (stereo not drawn) [Example 1.58]	50 ppb
O=C(/C=C/c1ccc(C(=O)NC2CC2)c2ccccc12)NC(c1cc(Cl)cc(Cl)c1)C(F)(F)F (stereo not drawn) [Example 1.62]	50 ppb
O=C(/C=C/c1ccc(C(=O)NC2CC2)c2ccccc12)NC(c1cccc(C(F)(F)F)c1)C(F)(F)F (stereo not drawn) [Example 1.5]	5 ppb
CCN1OCC(NC(=O)c2ccc(/C=C/C(=O)NC(c3cccc(C(F)(F)F)c3)C(F)(F)F)c3ccccc23)C1=O (stereo not drawn) [Example 1.34]	50 ppb
